Assay results from US20240131028A1, “CHEMOVACCINATION AGAINST PLASMODIUM INFECTION WITH SELECTIVE PLASMEPSIN X INHIBITORS” (Merck Sharp & Dohme LLC, priority 2021, published 2024).
Like-named read-outs stand apart in the source and are kept apart here.

System: ring stage parasites (Pf)
Assay: Parasite lactate dehydrogenase (LDH) growth assay (Parasite Assay, PfLDH Assay)
Assay type: cell-based, P. falciparum
Details: 72 hours growth, LDH readout
[1] = Plasmodium falciparum, 72 h, Table 3, read-out: EC50
[2] = Plasmodium falciparum, 72 h, Table 4, read-out: EC50 (Table 4)
[3] = Table 4, read-out: EC50 (Table 4)

Row | Structure (SMILES) | EC50 [1] | EC50 [2] | other results
1 | COCC[C@H]([C@H]1C[C@@H]1C(=O)N[C@@H]1CC(C)(C)Oc2cc(C)c(Cl)cc21)N1C(=N)NC(C)(C)CC1=O [Example 137A] | 12 nM |  | 
2 | COCC[C@H]([C@H]1C[C@@H]1C(=O)N[C@H]1CC(C)(C)Oc2cc(C)c(Cl)cc21)N1C(=N)NC(C)(C)CC1=O [Example 137B] | 6.4 nM |  | 
3 | COCC[C@H]([C@H]1C[C@@H]1C(=O)N[C@H]1CC(C)(C)Oc2cc(C)c(C)cc21)N1C(=N)NC(C)(C)CC1=O [Example 138A] | 7.4 nM |  | 
4 | COCC[C@H]([C@H]1C[C@@H]1C(=O)N[C@@H]1CC(C)(C)Oc2cc(C)c(C)cc21)N1C(=N)NC(C)(C)CC1=O [Example 138B] | 18 nM |  | 
5 | CC1C[C@H](NC(=O)[C@H]2C[C@@H]2CN2C(=N)NC(C)(C)CC2=O)c2cc(F)ccc2O1 (some centres unmarked) [Example 139A] | 99 nM |  | 
6 | CC1C[C@H](NC(=O)[C@H]2C[C@@H]2CN2C(=N)NC(C)(C)CC2=O)c2cc(F)ccc2O1 (some centres unmarked) [Example 139B] |  |  | EC50 (Table 3, read-out: EC50): 130 nM
7 | CC1(C)CC(=O)N(C[C@H]2C[C@@H]2C(=O)N[C@H]2CC(C3CC3)Oc3ccccc32)C(=N)N1 (some centres unmarked) [Example 140A] | 220 nM |  | 
8 | CC1(C)CC(=O)N(C[C@H]2C[C@@H]2C(=O)N[C@H]2CC(C3CC3)Oc3ccccc32)C(=N)N1 (some centres unmarked) [Example 140B] |  |  | EC50 (Table 3, read-out: EC50): 280 nM
9 | CCC1(CC)CC(=O)N([C@H](CCOC)[C@H]2C[C@@H]2C(=O)N[C@@H]2CC(C)(C)Oc3ccccc32)C(=N)N1 [Example 141] |  | 4.7 nM | 
10 | CCC1(CC)CC(=O)N([C@H](CCOC)[C@H]2C[C@@H]2C(=O)N[C@H]2c3ccccc3OC(C)(C)[C@@H]2O)C(=N)N1 [Example 144] |  | 165 nM | 
11 | CCC1(CC)CC(=O)N([C@H](CCOC)[C@H]2C[C@@H]2C(=O)N[C@@H]2c3ccccc3OC(C)(C)[C@H]2O)C(=N)N1 [Example 145] |  | 8.4 nM | 
12 | CCC1(CC)CC(=O)N([C@H](CCOC)[C@H]2C[C@@H]2C(=O)N[C@H]2CC(C)(C)Oc3ccc(Cl)cc32)C(=N)N1 [Example 146] |  | 1.1 nM | 
13 | CCC1(CC)CC(=O)N([C@H](CCOC)[C@H]2C[C@@H]2C(=O)NC2CC(C)(C)Oc3c(Cl)cccc32)C(=N)N1 (some centres unmarked) [Example 148A] |  | 2.7 nM | 
14 | CCC1(CC)CC(=O)N([C@H](CCOC)[C@H]2C[C@@H]2C(=O)NC2CC(C)(C)Oc3c(Cl)cccc32)C(=N)N1 (some centres unmarked) [Example 148B] |  |  | EC50 [3]: 1.9 nM
15 | CCC1(CC)CC(=O)N([C@H](CCOC)[C@H]2C[C@@H]2C(=O)NC2CC(C)(C)Oc3cccc(Cl)c32)C(=N)N1 (some centres unmarked) [Example 149A] |  | 1 nM | 
16 | CCC1(CC)CC(=O)N([C@H](CCOC)[C@H]2C[C@@H]2C(=O)NC2CC(C)(C)Oc3cccc(Cl)c32)C(=N)N1 (some centres unmarked) [Example 149B] |  |  | EC50 [3]: 1.2 nM
17 | CCC1(CC)CC(=O)N([C@H](CCOC)[C@H]2C[C@@H]2C(=O)NC2c3cc(Cl)ccc3OC(C)(C)[C@H]2O)C(=N)N1 (some centres unmarked) [Example 150] |  | 3.9 nM | 
